Consider 27 molecules from US20230406864A1, “7-AZOLE SUBSTITUTED 2-AMINOQUINAZOLINE INHIBITORS OF HPK1” (MERCK SHARP & DOHME LLC, priority 2020, published 2023).

Structures are written as SMILES.

The target in this assay is T1, Human HPK1, catalytic domain (Homo sapiens, UniProt Q92918).
T1 construct: purchased Cama (so in the source)
T1 sequence (Q92918 1-346): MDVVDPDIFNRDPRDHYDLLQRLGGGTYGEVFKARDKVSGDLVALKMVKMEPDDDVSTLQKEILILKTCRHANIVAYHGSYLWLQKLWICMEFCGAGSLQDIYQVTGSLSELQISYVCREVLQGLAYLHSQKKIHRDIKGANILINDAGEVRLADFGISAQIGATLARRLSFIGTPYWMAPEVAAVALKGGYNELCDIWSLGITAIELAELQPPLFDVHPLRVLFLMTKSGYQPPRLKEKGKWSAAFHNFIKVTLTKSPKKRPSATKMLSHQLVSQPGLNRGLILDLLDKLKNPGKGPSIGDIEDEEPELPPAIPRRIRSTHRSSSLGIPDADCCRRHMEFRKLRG
Description: HPK1-SLP76 TR-FRET assay. Format: biochemical. The conditions noted are these: HPK1 kinase domain 0.075 nM; full length SLP-76 10 nM; ATP 10 μM; 30 min preincubation; 60 min reaction; room temperature. On the technique in general: Time-resolved FRET reads energy transfer from a long-lived donor to a nearby acceptor.
`Cc1c(-c2cc3nc(Nc4cnn(CC(C)(C)O)c4Cl)ncc3c(N)c2F)cnc2c1NCCO2` [Example 2-18, 1-(4-{[5-amino-6-fluoro-7-(8-methyl-2,3-dihydro-1H-pyrido[2,3-b][1,4]oxazin-7-yl)quinazolin-2-yl]amino}-5-chloro-1H-pyrazol-1-yl)-2-methypropan-2-ol] showed an IC50 of 2 nM.

Turning to `Cc1c(-c2cc3nc(Nc4cc5n(n4)CCN(C(C)C)C(=O)C5)ncc3c(N)c2F)cnc2c1NCCO2` [Example 2-20, 2-{[5-amino-6-fluoro-7-(8-methyl-2,3-dihydro-1H-pyrido[2,3-b][1,4]oxazin-7-yl)quinazolin-2-yl]amino}-6-(propan-2-yl)-7,8-dihydro-4H-pyrazolo[1,5-d][1,4]diazepin-5(6H)-one], the half-inhibitory concentration (IC50) is 0.063 nM.

With `CCn1cc(Nc2ncc3c(N)c(F)c(-c4cnc5c(c4C)NCCO5)cc3n2)cn1` [Example 2-22, N~2~-(1-ethyl-1H-pyrazol-4-yl)-6-fluoro-7-(8-methyl-2,3-dihydro-1H-pyrido[2,3-b][1,4]oxazin-7-yl)quinazoline-2,5-diamine], the half-maximal inhibitory concentration (IC50) is 0.076 nM.

As for `Cc1c(-c2cc3nc(Nc4cnn(C5CCC5)c4)ncc3c(N)c2F)cnc2c1NCCO2` [Example 2-23, N~2~-(1-cyclobutyl-1H-pyrazol-4-yl)-6-fluoro-7-(8-methyl-2,3-dihydro-1H-pyrido[2,3-b][1,4]oxazin-7-yl)quinazoline-2,5-diamine], the IC50 was found to be 0.19 nM.

The molecule `Cc1c(-c2cc3nc(Nc4cnn(CC(C)(C)O)c4)ncc3c(N)c2F)cnc2c1NCCO2` [Example 2-24, 1-(4-{[5-amino-6-fluoro-7-(8-methyl-2,3-dihydro-1H-pyrido[2,3-b][1,4]oxazin-7-yl)quinazolin-2-yl]amino}-1H-pyrazol-1-yl)-2-methylpropan-2-ol] had an IC50 of 1.1 nM.

The molecule `Cc1c(-c2cc3nc(Nc4cnn(C5CC5)c4Cl)ncc3c(N)c2F)cnc2c1NCCO2` [Example 2-25, N~2~-(5-chloro-1-cyclopropyl-1H-pyrazol-4-yl)-6-fluoro-7-(8-methyl-2,3-dihydro-1H-pyrido[2,3-b][1,4]oxazin-7-yl)quinazoline-2,5-diamine] yielded an IC50 of 0.49 nM.

Turning to `Cc1c(-c2cc3nc(Nc4cnn(C5(C)CC5)c4Cl)ncc3c(N)c2F)cnc2c1NCCO2` [Example 2-26, N~2~-[5-chloro-1-(1-methylcyclopropyl)-1H-pyrazol-4-yl]-6-fluoro-7-(8-methyl-2,3-dihydro-1H-pyrido[2,3-b][1,4]oxazin-7-yl)quinazoline-2,5-diamine], it took 0.38 nM to reach half-maximal inhibition (IC50). The IC50 values of the last two molecules are within 1.5-fold of each other.

As for `CCn1cc(Nc2ncc3c(N)c(F)c(-c4cnc5c(c4C)NCCO5)cc3n2)c(C)n1` [Example 2-27, N~2~-(1-ethyl-3-methyl-1H-pyrazol-4-yl)-6-fluoro-7-(8-methyl-2,3-dihydro-1H-pyrido[2,3-b][1,4]oxazin-7-yl)quinazoline-2,5-diamine], it took 1 nM to reach half-maximal inhibition (IC50).

Turning to `CNC(=O)C12CC(n3cc(Nc4ncc5c(N)c(F)c(-c6cnc7c(c6C)NCCO7)cc5n4)cn3)(C1)C2` [Example 2-28, 3-(4-{[5-amino-6-fluoro-7-(8-methyl-2,3-dihydro-1H-pyrido[2,3-b][1,4]oxazin-7-yl)quinazolin-2-yl]amino}-1H-pyrazol-1-yl)-N-methylbicyclo[1.1.1]pentane-1-carboxamide], the concentration for half-maximal inhibition (IC50) is 0.094 nM. Compared with the last molecule, the IC50 is about 11-fold lower.

With `Cc1c(-c2cc3nc(Nc4cnn(C(F)F)c4C)ncc3c(N)c2F)cnc2c1NCCO2` [Example 2-29, N~2~-[1-(difluoromethyl)-5-methyl-1H-pyrazol-4-yl]-6-fluoro-7-(8-methyl-2,3-dihydro-1H-pyrido[2,3-b][1,4]oxazin-7-yl)quinazoline-2,5-diamine], the IC50 was 0.1 nM.

`Cc1c(-c2cc3nc(Nc4cnn(C)c4C)ncc3c(N)c2F)cnc2c1NCCO2` [Example 2-30, N~2~-(1,5-dimethyl-1H-pyrazol-4-yl)-6-fluoro-7-(8-methyl-2,3-dihydro-1H-pyrido[2,3-b][1,4]oxazin-7-yl)quinazoline-2,5-diamine] gave a half-inhibitory concentration (IC50) of 0.051 nM.

In the case of `Cc1nn(CC(F)F)cc1Nc1ncc2c(N)c(F)c(-c3cnc4c(c3C)NCCO4)cc2n1` [Example 2-31, N~2~-[1-(2,2-difluoroethyl)-3-methyl-1H-pyrazol-4-yl]-6-fluoro-7-(8-methyl-2,3-dihydro-1H-pyrido[2,3-b][1,4]oxazin-7-yl)quinazoline-2,5-diamine], the concentration for half-maximal inhibition (IC50) came out at 0.2 nM.

The molecule `Cc1c(-c2cc3nc(Nc4cnn(CC(F)F)c4)ncc3c(N)c2F)cnc2c1NCCO2` [Example 2-32, N~2~-[1-(2,2-difluoroethyl)-1H-pyrazol-4-yl]-6-fluoro-7-(8-methyl-2,3-dihydro-1H-pyrido[2,3-b][1,4]oxazin-7-yl)quinazoline-2,5-diamine] showed an IC50 of 0.054 nM.

For the molecule `Cc1nn(C(C)C)cc1Nc1ncc2c(N)c(F)c(-c3cnc4c(c3C)NCCO4)cc2n1` [Example 2-33, 6-fluoro-7-(8-methyl-2,3-dihydro-1H-pyrido[2,3-b][1,4]oxazin-7-yl)-N~2~-[3-methyl-1-(propan-2-yl)-1H-pyrazol-4-yl]quinazoline-2,5-diamine], the IC50 turned out to be 3.5 nM.

Take `Cc1nn(C)cc1Nc1ncc2c(N)c(F)c(-c3cnc4c(c3C)NCCO4)cc2n1` [Example 2-34, N~2~-(1,3-dimethyl-1H-pyrazol-4-yl)-6-fluoro-7-(8-methyl-2,3-dihydro-1H-pyrido[2,3-b][1,4]oxazin-7-yl)quinazoline-2,5-diamine]: half-maximal inhibition (IC50) was put at 0.058 nM. This IC50 is about 60-fold lower than that of the molecule before.

`Cc1c(-c2cc3nc(Nc4cnn5c4CCC5)ncc3c(N)c2F)cnc2c1NCCO2` [Example 2-35, N~2~-(5,6-dihydro-4H-pyrrolo[1,2-b]pyrazol-3-yl)-6-fluoro-7-(8-methyl-2,3-dihydro-1H-pyrido[2,3-b][1,4]oxazin-7-yl)quinazoline-2,5-diamine] yielded a half-inhibitory concentration (IC50) of 0.051 nM.

The molecule `Cc1nsc(Nc2ncc3c(N)c(F)c(-c4cnc5c(c4C)NCCO5)cc3n2)c1Cl` [Example 2-36, N~2~-(4-chloro-3-methyl-1,2-thiazol-5-yl)-6-fluoro-7-(8-methyl-2,3-dihydro-1H-pyrido[2,3-b][1,4]oxazin-7-yl)quinazoline-2,5-diamine] showed an IC50 of 0.28 nM. This IC50 is about 5.5-fold higher than that of the molecule before.

As for `Cc1cnsc1Nc1ncc2c(N)c(F)c(-c3cnc4c(c3C)NCCO4)cc2n1` [Example 2-37, 6-fluoro-7-(8-methyl-2,3-dihydro-1H-pyrido[2,3-b][1,4]oxazin-7-yl)-N~2~-(4-methyl-1,2-thiazol-5-yl)quinazoline-2,5-diamine], the IC50 was 0.071 nM.

Take `CCn1ncc(Nc2ncc3c(N)c(F)c(-c4cnc5c(c4C)NCCO5)cc3n2)c1F` [Example 2-38, N~2~-(1-ethyl-5-fluoro-1H-pyrazol-4-yl)-6-fluoro-7-(8-methyl-2,3-dihydro-1H-pyrido[2,3-b][1,4]oxazin-7-yl)quinazoline-2,5-diamine]: the IC50 worked out at 0.57 nM.

`Cc1c(-c2cc3nc(Nc4cnn(C5COC5)c4)ncc3c(N)c2F)cnc2c1NCCO2` [Example 2-39, 6-fluoro-7-(8-methyl-2,3-dihydro-1H-pyrido[2,3-b][1,4]oxazin-7-yl)-N~2~-[1-(oxetan-3-yl)-1H-pyrazol-4-yl]quinazoline-2,5-diamine] displayed a half-inhibitory concentration (IC50) of 0.051 nM.

`CNC(=O)Cn1cc(Nc2ncc3c(N)c(F)c(-c4cnc5c(c4C)NCCO5)cc3n2)c(C)n1` [Example 2-40, 2-(4-{[5-amino-6-fluoro-7-(8-methyl-2,3-dihydro-1H-pyrido[2,3-b][1,4]oxazin-7-yl)quinazolin-2-yl]amino}-3-methyl-1H-pyrazol-1-yl)-N-methylacetamide] registered an IC50 of 0.27 nM.

The molecule `CNC(=O)C(C)(C)n1cc(Nc2ncc3c(N)c(F)c(-c4cnc5c(c4C)NCCO5)cc3n2)cn1` [Example 2-41, 2-(4-{[5-amino-6-fluoro-7-(8-methyl-2,3-dihydro-1H-pyrido[2,3-b][1,4]oxazin-7-yl)quinazolin-2-yl]amino}-1H-pyrazol-1-yl)-N,2-dimethylpropanamide] registered an IC50 of 0.84 nM.

In the case of `Cc1c(-c2cc3nc(Nc4cnn(CS(C)(=O)=O)c4)ncc3c(N)c2F)cnc2c1NCCO2` [Example 2-42, 6-fluoro-7-(8-methyl-2,3-dihydro-1H-pyrido[2,3-b][1,4]oxazin-7-yl)-N2-(1-((methylsulfonyl)methyl)-1H-pyrazol-4-y)quinazoline-2,5-diamine], half-maximal inhibition (IC50) required 0.13 nM. Against the preceding molecule, the IC50 is about 6.5-fold lower.

In turn, `Cc1c(-c2c(F)c(N)c3cnc(Nc4cnn(C5(C)CC5)c4)nc3c2Cl)cnc2c1NCCO2` [Example 2-43, (+ and −)-8-chloro-6-fluoro-N~2~-[1-(1-methylcyclopropyl)-1H-pyrazol-4-yl]-7-(8-methyl-2,3-dihydro-1H-pyrido[2,3-b][1,4]oxazin-7-yl)quinazoline-2,5-diamine] yielded a half-maximal inhibitory concentration (IC50) of 0.14 nM.

Molecule `Cc1c(-c2cc3nc(Nc4cnn(C5CCN(C)CC5)c4)ncc3c(N)c2F)cnc2c1NCCO2` [Example 2-44, 6-fluoro-7-(8-methyl-2,3-dihydro-1H-pyrido[2,3-b][1,4]oxazin-7-yl)-N~2~-[1-(1-methylpiperidin-4-yl)-1H-pyrazol-4-yl]quinazoline-2,5-diamine] showed an IC50 of 0.045 nM.

`Cc1c(-c2cc3nc(Nc4cnn(C5CC5)c4C)ncc3c(N)c2F)cnc2c1NCCO2` [Example 2-45, N~2~-(1-cyclopropyl-5-methyl-1H-pyrazol-4-yl)-6-fluoro-7-(8-methyl-2,3-dihydro-1H-pyrido[2,3-b][1,4]oxazin-7-yl)quinazoline-2,5-diamine] gave a 50% inhibitory concentration (IC50) of 0.18 nM.

`Cc1c(-c2cc3nc(Nc4cnn(C56CC(C(C)(C)O)(C5)C6)c4)ncc3c(N)c2F)cnc2c1NCCO2` [Example 2-46, 2-[3-(4-{[5-amino-6-fluoro-7-(8-methyl-2,3-dihydro-1H-pyrido[2,3-b][1,4]oxazin-7-yl)quinazolin-2-yl]amino}-1H-pyrazol-1-yl)bicyclo[1.1.1]pentan-1-yl]propan-2-ol] gave a concentration for half-maximal inhibition (IC50) of 0.051 nM.

Usually IC50 stands for the concentration needed to halve the response being measured. Higher therefore signals weaker potency.
